Test results reported in patent US6518302B1, “Remedies” (Takara Shuzo Co., Ltd., priority 1999, dated 2003).
Like-named read-outs stand apart in the source and are kept apart here.

How the values were obtained:
[1] = system: HL-60 (ATCC CCL-240) cells; experiment: Viability of HL-60 cells by Trypan Blue staining; format: cell-based; conditions: Homo sapiens, read-out: Viability50, concentration that results in a viability of 50%
Procedure: HL-60 (ATCC CCL-240) cells were cultured at 37° C. in RPMI 1640 medium (Bio Whittaker) containing 10% fetal calf serum (JRH) which had been treated at 56° C. for 30 minutes and suspended in RPMI 1640 medium at a concentration of 2.5×10^5 cells/4.5 ml.
[…] each of aqueous solutions of the compound (2) at a concentration of 10, 50 or 100 mM, the compound (7) at a concentration of 500, 1000 or 1500 μM, the compound (9) at a concentration of 750, 1500 or 3000 μM, the compound (11) at a concentration of 750, 1500 or 3000 μM, or the compound (14) at a concentration of 750, 1500 or 3000 μM was added to 4.5 ml of the suspension. The mixtures were incubated at 37° C. for 24 hours in the presence of 5% CO2.
A portion of the cells cultured for 24 or 48 hours as described in Example 4 was stained with 0.4% Trypan Blue and examined under an optical microscope. The number of viable cells which were not stained and the number of dead cells which were stained blue were counted. The concentration of each of the compounds (2), (7), (9), (11) and (14) that results in a viability of 50% (Viability50 mM) was determined.

[2] = Conversion into DGE in culture medium (thin-layer chromatography); format: in vitro ADME; conditions: 10 mM in RPMI 1640 medium with 10% calf serum, 37° C., 4 hours
Procedure: The compound (7) or the compound (9) synthesized in Example 1 was dissolved at a final concentration of 10 mM in RPMI 1640 medium supplemented with 10% calf serum. These samples were allowed to stand at 37° C. for 4 hours. […] each of the samples was then subjected to thin-layer chromatography using chloroform:methanol=5:1 as a developing solvent. Detection was carried out using orcinol-sulfuric acid.
For each sample, a spot with Rf value of 0.5, the same value as that for the compound of general formula IV in which Z is CH2OH and Y is H (L-glycero-1,5-epoxy-1αβ,6-dihydroxy-cis-hex-3-en-2-one, hereinafter referred to as DGE), was detected.

[3] = system: HL-60 (ATCC CCL-240) cells; experiment: Analysis of DNA fragmentation; format: cell-based, Human; conditions: HL-60 cells, cultured for 24 or 48 hours (time not given)
Procedure: HL-60 (ATCC CCL-240) cells were cultured at 37° C. in RPMI 1640 medium (Bio Whittaker) containing 10% fetal calf serum (JRH) which had been treated at 56° C. for 30 minutes and suspended in RPMI 1640 medium at a concentration of 2.5×10^5 cells/4.5 ml. […] each of aqueous solutions of the compound (2) at a concentration of 10, 50 or 100 mM, the compound (7) at a concentration of 500, 1000 or 1500 μM, the compound (9) at a concentration of 750, 1500 or 3000 μM, the compound (11) at a concentration of 750, 1500 or 3000 μM, or the compound (14) at a concentration of 750, 1500 or 3000 μM was added to 4.5 ml of the suspension. The mixtures were incubated at 37° C. for 24 hours in the presence of 5% CO2. Measurement of apoptotic cells using FACScan as described in Saibo Kogaku, Bessatsu (Cell Technology, Suppl.) Jikken Protocol Series: Apoptosis Jikken Protocol (Experimental Protocol Series: Experimental Protocols for Apoptosis) (Shujun-sha) pp. 129-130 and analysis of DNA fragmentation as described in Bio Manual UP Series: […] Apoptosis Jikken-ho (Bio Manual UP Series: Current Experimental Methods for Apoptosis) (Yodo-sha) pp. 61-63 were carried out using cells cultured for 24 or 48 hours in the same manner as that described above.

[4] = system: NO production in celiac macrophages; experiment: NO production of celiac macrophages from orally dosed mice; format: in vivo; conditions: 1% suspension in olive oil, forced oral administration once a day, 12 times in 15 days, 10 or 30 ml/kg, ddY mice
Procedure: The compound (7) in Example 1 was suspended in olive oil (Nacalai Tesque) at a concentration of 1% to prepare a 1% suspension of the compound (7). The 1% suspension of the compound (7) prepared as described above was administered to ddY mice (Japan SLC, female, 7 weeks old) by forced oral administration once a day, 12 times in 15 days, at a dosage of 10 or 30 ml/kg. Tap water was similarly administered by forced oral administration as a control. Each group consisted of 3 mice. Thereafter, 4 ml of RPMI 1640 medium (Bio Whittaker, Code. 12-702F) containing 10% fetal calf serum was intraperitoneally injected. Media removed from 3 mice after extensive massage were combined to obtain celiac cells. The celiac cells were suspended in RPMI 1640 medium containing 10% fetal calf serum at a concentration of 10^6 cells/ml. 500 μl of the suspension was added to each well of a 48-well microtiter plate and the plate was incubated at 37° C. for 2 hours in the presence of 5% CO2. Adhesive cells obtained by removing the culture supernatant were used as celiac macrophages. 500 μl of fresh Dulbecco's modified Eagle's medium (Bio Whittaker, Code. 12-917F) without Phenol Red containing 10% fetal calf serum and 2 mM L-glutamine was added to each well. […] The concentration of NO2^− resulting from oxidation of NO in the medium was then measured as described in Example 6. […]

Row | Structure (SMILES) | IC50 ([1]; 24 hours) | IC50 ([1]; 48 hours) | conversion into DGE (spot with Rf value of 0.5, the same value as DGE) [2] | final concentration at which DNA fragmentation was observed [3] | activity of inhibiting NO production in celiac macrophages (LPS and IFN-γ) [4]
1 | OCC1OC(OC2C(CO)OC(OC3C(CO)OC(OC4C(O)COC4C(O)C(O)O)C(O)C3O)C(O)C2O)C(O)C(O)C1O [Compound (14), 4-O-β-maltotoriosyl-3,6-anhydro-D-galactose] | 551 µM | 150 µM | conversion into DGE was also observed | ≥ 75 µM | –
2 | O=C[C@H](O)[C@H]1OC[C@@H](O)[C@@H]1OCc1ccccc1 [Compound (17), 4-O-benzyl-3,6-anhydro-D-galactose] | – | – | conversion into DGE was also observed | – | –
3 | O=C[C@H](O)[C@H]1OC[C@@H](O)[C@@H]1OC(=O)c1ccccc1 [Compound (7), 4-O-benzoyl-3,6-anhydro-D-galactose] | 123 µM | 101 µM | – | ≥ 100 µM | remarkable activity of inhibiting NO production
